Source: article PMC4688006 (Leukemia & lymphoma, 2015)

Tests used:
patients with AML = conditions: cited from earlier work; for CR rates: randomized phase III clinical trials
[1] = Decitabine plasma pharmacokinetics; assay type: in vivo, human; conditions: for AUC(0-inf) / AUC(0-t) / Cmax: intravenous; for AUC(0-inf): Mean AUCinf (SD); for AUC(0-t): Mean AUCt (SD); for Cmax: Mean Cmax (SD)
[2] = tested on: patients with AML and/or MDS; conditions: cited from earlier work
[3] = Vorinostat serum pharmacokinetics; assay type: in vivo, human; conditions: for AUC(0-inf) / AUC(0-t) / Cmax / half-life: human, oral; for AUC(0-inf): Mean AUCinf (SD); for AUC(0-t): Mean AUCt (SD); for Cmax: Mean Cmax (SD); for half-life: Mean t½ (SD)
[4] = Concurrent schedule: decitabine 20 mg/m^2/day (n = 6), Day 1, cycle 1
[5] = Concurrent schedule: decitabine 20 mg/m^2/day (n = 6), Day 5, cycle 1
[6] = Sequential schedule: decitabine 20 mg/m^2/day (n = 3), Day 1, cycle 1
[7] = Sequential schedule: decitabine 20 mg/m^2/day (n = 3), Day 5, cycle 1
[8] = human, 20 mg/m^2/day, Concurrent schedule: decitabine 20 mg/m^2/day (n = 6), Day 1, cycle 1
[9] = human, 20 mg/m^2/day, Concurrent schedule: decitabine 20 mg/m^2/day (n = 6), Day 5, cycle 1
[10] = human, 20 mg/m^2/day, Sequential schedule: decitabine 20 mg/m^2/day (n = 3), Day 1, cycle 1
[11] = human, 20 mg/m^2/day, Sequential schedule: decitabine 20 mg/m^2/day (n = 3), Day 5, cycle 1
[12] = Concurrent schedule, 100 mg bid days 1–21, Day 15 (n = 1)
[13] = 100 mg, Concurrent schedule, 100 mg bid days 1–21, Day 4 (n = 3)
[14] = 100 mg, Concurrent schedule, 100 mg bid days 1–21, Day 15 (n = 1)
[15] = 100 mg, Sequential schedule, 100 mg bid days 6–21 (n = 4), day 9 of cycle 1
[16] = 200 mg, Concurrent schedule, 200 mg bid days 1–21, Day 4 (n = 10)
[17] = 200 mg, Concurrent schedule, 200 mg bid days 1–21, Day 15 (n = 7)
[18] = 200 mg, Concurrent schedule, 200 mg tid days 1–14, Day 4 (n = 7)
[19] = 200 mg, Sequential schedule, 200 mg bid days 6–21 (n = 4), day 9 of cycle 1
[20] = 200 mg, Sequential schedule, 200 mg tid days 6–21 (n = 8), day 9 of cycle 1

Nc1ncn([C@@H]2O[C@H](CO)[C@@H](O)[C@H]2O)c(=O)n1 [azacitidine]
CR rates (patients with AML): 9–18%

Nc1ncn([C@H]2C[C@H](O)[C@@H](CO)O2)c(=O)n1 [decitabine, 5-aza-2’-deoxycytidine]
Mean CL (SD) [1, 4]: 202.8 (153.7) L/h/m^2 | Mean t^1/2 (SD) [1, 4]: 0.36 (0.12) h | Mean CL (SD) [1, 5]: 139.6 (55.1) L/h/m^2 | Mean t^1/2 (SD) [1, 5]: 0.40 (0.17) h | Mean CL (SD) [1, 6]: 254.8 (134.3) L/h/m^2 | Mean t^1/2 (SD) [1, 6]: 0.36 (0.05) h | Mean CL (SD) [1, 7]: 226.2 (121.6) L/h/m^2 | Mean Cmax (SD) [1, 7]: 129.9 (87.1) ng/mL | Mean t^1/2 (SD) [1, 7]: 0.42 (0.18) h | AUC(0-inf) [1, 8]: 152 ng·h/mL | AUC(0-inf) [1, 9]: 170 ng·h/mL | AUC(0-inf) [1, 10]: 105 ng·h/mL | AUC(0-inf) [1, 11]: 111 ng·h/mL | AUC(0-t) [1, 8]: 149 ng·h/mL | AUC(0-t) [1, 9]: 166 ng·h/mL | AUC(0-t) [1, 10]: 102 ng·h/mL | AUC(0-t) [1, 11]: 107 ng·h/mL | Cmax [1, 8]: 193 ng/mL | Cmax [1, 9]: 236 ng/mL | Cmax [1, 10]: 137 ng/mL | half-life ([1]; human, iv, 20 mg/m^2/day): ~0.333 h | CR rates (patients with AML): 9–18% | overall response rates (ORRs) (patients with AML; single agent, three multicenter trials (two phase II, one phase III)): 25–30% | complete response [CR] rate (patients with AML; single agent, three multicenter trials): 13–25%

O=C(CCCCCCC(=O)Nc1ccccc1)NO [vorinostat, suberoylanilide hydroxamic acid]
MTD ([2]; for 14 consecutive days every 21 days): 200 mg bid or 250 mg tid | responses (CR and/or CRi) ([2]; single agent): 4.5–10% | Mean CL/F (SD) ([3]; Concurrent schedule, 100 mg bid days 1–21, Day 4 (n = 3)): 4.35 (1.26) L/min | Mean CL/F (SD) [3, 12]: 2.74 L/min | Mean Cmax (SD) [3, 12]: 226.3 ng/mL | Mean CL/F (SD) ([3]; Concurrent schedule, 200 mg bid days 1–21, Day 4 (n = 10)): 4.02 (1.30) L/min | Mean CL/F (SD) ([3]; Concurrent schedule, 200 mg bid days 1–21, Day 15 (n = 7)): 4.70 (2.45) L/min | Mean CL/F (SD) ([3]; Concurrent schedule, 200 mg tid days 1–14, Day 4 (n = 7)): 2.86 (0.81) L/min | Mean CL/F (SD) ([3]; Sequential schedule, 100 mg bid days 6–21 (n = 4), day 9 of cycle 1): 4.80 (0.79) L/min | Mean CL/F (SD) ([3]; Sequential schedule, 200 mg bid days 6–21 (n = 4), day 9 of cycle 1): 5.57 (5.26) L/min | Mean CL/F (SD) ([3]; Sequential schedule, 200 mg tid days 6–21 (n = 8), day 9 of cycle 1): 5.89 (4.48) L/min | AUC(0-inf) [3, 13]: 407 ng·h/mL | AUC(0-inf) [3, 14]: 609 ng·h/mL | AUC(0-inf) [3, 15]: 352 ng·h/mL | AUC(0-t) [3, 13]: 400 ng·h/mL | AUC(0-t) [3, 14]: 608 ng·h/mL | AUC(0-t) [3, 15]: 276 ng·h/mL | Cmax [3, 13]: 151 ng/mL | Cmax [3, 15]: 117 ng/mL | half-life [3, 13]: 1.04 h | half-life [3, 14]: 0.62 h | AUC(0-inf) [3, 16]: 930 ng·h/mL | AUC(0-inf) [3, 17]: 1010 ng·h/mL | AUC(0-inf) [3, 18]: 1240 ng·h/mL | AUC(0-inf) [3, 19]: 974 ng·h/mL | AUC(0-inf) [3, 20]: 910 ng·h/mL | AUC(0-t) [3, 16]: 734 ng·h/mL | AUC(0-t) [3, 17]: 778 ng·h/mL | AUC(0-t) [3, 18]: 1060 ng·h/mL | AUC(0-t) [3, 19]: 556 ng·h/mL | AUC(0-t) [3, 20]: 743 ng·h/mL | Cmax [3, 16]: 252 ng/mL | Cmax [3, 17]: 246 ng/mL | Cmax [3, 18]: 353 ng/mL | Cmax [3, 19]: 126 ng/mL | Cmax [3, 20]: 263 ng/mL | half-life [3, 17]: 2.34 h | half-life [3, 18]: 2.68 h | half-life [3, 19]: 3.34 h | half-life [3, 20]: 1.65 h
